Measurements reported in patent publication US9198415B2, “Plant irrigation methods” (Syngenta Participations AG, priority 2010, dated 2015).
Marks after values point to notes of the source that are not given here.

Experiments:
Assay type in all cases: in vivo
Soybean plants [1] = assay: Soybean plants in pouches, drench application, drought stress and rewatering, shoot dry weight; conditions: for Total Shoot Weight: 6 days drought, shoot dry weight 2 days after rewatering, 40 plants, untreated check 4.3 g
Method: Soybean plants were grown in pouches (in filter paper bags) and either BION or Thiamethoxam was applied to the water at different rates (see FIG. 2). Sowing and drench application of the compounds occurred simultaneously. After 8 days of optimal growth, the pouches went dry and plants were grown under drought stress conditions for 6 days. At the end of the drought period, plants were rewatered and shoot dry weight was determined 2 days later (Table 2). In total, 40 plants per treatment and 40 untreated check plants were assessed.

Corn plants = assay: Corn in 55-gal lysimeter containers, sub-surface chemigation, deficit water conditions, yield and root architecture; conditions: maximum labeled rate; for Yield (% difference from UTC): sub-surface chemigation at V3/V4, deficit water (50% plant-available water), 12 plants; for Relative number of fine roots (% difference from UTC): sub-surface chemigation at V3/V4, deficit water, measured within 2 weeks of harvest by digital imaging
From the text: In this experiment, standardized growth conditions were applied across all corn treatments including: soil-water availability, soil texture and composition, soil chemical and physical properties, meteorological and environmental parameters, and plant nutrition in a greenhouse. No indication of plant disease or pest damage was observed over the course of the study and no pest management program was necessary. A homogeneous sand-organic matter soil mixture (0.18% organic matter) was used as the growth medium in 55-gal containers. These containers were used as a weighing lysimeter, where daily changes in system weight were used to calculate plant transpiration. Four corn plants were grown in each 55-gal container. Three 55-gal containers (12 plants total) made up each treatment. All irrigation and chemical treatments were applied via sub-surface irrigation. Chemical treatments consisted of: azoxystrobin (Quadris), paclobutrazol (Trimmit), trinexapac-ethyl (Moddus), and propiconazole (Tilt) at maximum labeled rates.
Corn plants were grown from seed and transplanted in the 55-gal drums approximately 14 days after planting. Uniform adequate irrigation was applied up to growth stage V3/V4 to ensure plant establishment. Chemical treatment applications were applied at growth stage V3/V4 via sub-surface chemigation. At stage V3/V4, irrigation was decreased to replicate deficit water conditions across all treatments for the remainder of the study period. Irrigation was managed daily to maintain 50% plant-available water. Visual signs of abiotic plant stress were observed approximately 30 days after chemical application. All corn plants were grown to yield and cobs were harvested when kernels were uniformly dry (15% moisture content). Root architecture, specifically relative number of fine roots, was measured at within 2 weeks of harvest using a digital imaging technique. Fine roots are related to water uptake productivity, which is directly tied to the ability of the plant to access soil-water under stress.
Effects of the chemical treatments via sub-surface irrigation on yield and root architecture were specifically documented. The effects are herein reported as the percentage increase compared to the untreated check (12 plants in three containers). […] Azoxystrobin, paclobutrazol, and trinexapac-ethyl were statistically different from the control (P values: <0.001 at the 95th percentile confidence interval).

Soybean plants [2] = assay: Soybean plants in pouches, drench application, severe drought stress, qualitative ranking of physiological state; conditions: for Plant physiological state: Desiccated (number of plants in %) / Plant physiological state: Slightly withered (number of plants in %) / Plant physiological state: Strongly withered (number of plants in %) / Plant physiological state: Turgescent (number of plants in %): evaluation 14 days after application
Method: Soybean plants were grown in pouches (in filter paper bags), and 100 plants each were treated with BION at 3 rates (60, 20, 2 ppm), added to the drench water. Sowing and drench application of BION occurred simultaneously. After 8 days of optimal growth, the pouches went dry and plants were grown for several days under severe drought stress conditions until evaluation (14 days after application). A qualitative assessment was carried out, ranking the plants behaviour into four categories corresponding to four different physiological states (turgescent, slightly withered, strongly withered and desiccated) (Table 1)

[3] = 2 ppm in drench water, severe drought
[4] = 20 ppm in drench water, severe drought
[5] = 60 ppm in drench water, severe drought

With `CN1COCN(Cc2cnc(Cl)s2)/C1=N\[N+](=O)[O-]` [TMX] the “Total Shoot Weight” value (Soybean plants [1]; 3 ppm in water) was 4.6 g and the “Total Shoot Weight” value (Soybean plants [1]; 12 ppm in water) was 5.8 g.

In the case of `CC(C)(C)[C@@H](O)[C@@H](Cc1ccc(Cl)cc1)n1cncn1` (racemic) [Paclobutrazol, (2RS,3RS)-1-(4-chlorophenyl)-4,4-dimethyl-2-(1H-1,2,4-triazol-1-yl)pentan-3-01], the “Yield (% difference from UTC)” value (Corn plants) was 16.6† % and the “Relative number of fine roots (% difference from UTC)” value (Corn plants) was 70.0† %.

`CSC(=O)c1cccc2nnsc12` [ASM, S-methyl benzo[1,2,3]thiadiazole-7-carbothioate] was tested, and the “Plant physiological state: Desiccated (number of plants in %)” value (Soybean plants [2]; [3]) was 0.0%, the “Plant physiological state: Slightly withered (number of plants in %)” value (Soybean plants [2]; [3]) was 70.0% and the “Plant physiological state: Strongly withered (number of plants in %)” value (Soybean plants [2]; [3]) was 5.0%. For the same compound, the “Plant physiological state: Turgescent (number of plants in %)” value (Soybean plants [2]; [3]) was 25.0%, the “Plant physiological state: Desiccated (number of plants in %)” value (Soybean plants [2]; [4]) was 5.3% and the “Plant physiological state: Slightly withered (number of plants in %)” value (Soybean plants [2]; [4]) was 7.9%. The “Plant physiological state: Strongly withered (number of plants in %)” value (Soybean plants [2]; [4]) was 2.6%, the “Plant physiological state: Turgescent (number of plants in %)” value (Soybean plants [2]; [4]) was 84.2% and the “Plant physiological state: Desiccated (number of plants in %)” value (Soybean plants [2]; [5]) was 0.0%. The “Plant physiological state: Slightly withered (number of plants in %)” value (Soybean plants [2]; [5]) was 15.2%, the “Plant physiological state: Strongly withered (number of plants in %)” value (Soybean plants [2]; [5]) was 0.0% and the “Plant physiological state: Turgescent (number of plants in %)” value (Soybean plants [2]; 60 ppm in drench water, severe drought, 100 plants) was 84.8%. The “Treated plants still fully turgescent at the end of the drought period” value (Soybean plants [2]; dose not stated, severe drought) was “more than 80%”, the “Behaviour of treated plants after severe drought compared to untreated check” value (Soybean plants [2]; qualitative) was “behaved much better after severe drought” and the “Total Shoot Weight” value (Soybean plants [1]; 5 ppm in water) was 4.1 g. For the same compound, the “Total Shoot Weight” value (Soybean plants [1]; 15 ppm in water) was 5.6 g and the “Health of treated plants after drought compared to untreated check” value (Soybean plants [1]; qualitative, FIG. 1) was “behaved extremely healthy”.

In the case of `CO/C=C(/C(=O)OC)c1ccccc1Oc1cc(Oc2ccccc2C#N)ncn1` [Azoxystrobin], the “Yield (% difference from UTC)” value (Corn plants) was 12.5† % and the “Relative number of fine roots (% difference from UTC)” value (Corn plants) was 37.3† %.

With `CCOC(=O)C1CC(=O)C(=C(O)C2CC2)C(=O)C1` (stereo not drawn) [Trinexapac-ethyl] the “Yield (% difference from UTC)” value (Corn plants) was 15.6† % and the “Relative number of fine roots (% difference from UTC)” value (Corn plants) was 34.3† %.

`CCCC1COC(Cn2cncn2)(c2ccc(Cl)cc2Cl)O1` (stereo not drawn) [Propiconazole] was tested, and the “Yield (% difference from UTC)” value (Corn plants) was 3.3% and the “Relative number of fine roots (% difference from UTC)” value (Corn plants) was 39.4† %.
